These results are taken from patent publication US20100080762A1, “SKIN CARE COMPOSITION” (priority 2006, published 2010).

Assay type in all cases: cell-based, human
The test system of test [1] is Interleukin (IL)6. Description: HaCaT keratinocytes, base line production of IL6 (no TNFα), Experiment 2. As for the experimental part:
(§1) In a second assay, the human keratinocyte cell line HaCat was stimulated with the inflammatory cytokine TNFα and the release of Interleukin (IL)6 into the medium was analysed with a commercially available “Enzyme Linked Immunosorbent Assay” (ELISA).
HaCaT cells were cultivated under the conditions explained in detail in Wertz et al., Free Radical Biology & Medicine, Vol. 37, No. 5, pp. 654-670, 2004. Cells were pre-cultivated in medium containing with lycopene at a concentration of 1 μmol/L for 48 h to give the cells sufficient time to accumulate lycopene. Lycopene was solubilized in a stock solution with Tetrahydrofuran (THF) and diluted into the medium such that the end concentration was 0.1% THF. […] Cells were harvested by trypsinisation and counted according to standard procedures. Il6 levels in the medium were standardized to the number of cells in the wells and expressed as pg/10^6 cells
This experiment was performed to investigate whether two other carotenoid representatives, beta-carotene and beta-cryptoxanthin, are able to reduce the general base line production of inflammatory mediators of normal skin

In test [2] the test system is HBD2. Description: Cytokine mix-induced keratinocyte inflammation model, HBD2 mRNA expression (real-time PCR). The note with it: NHEK; for HBD2, % compared to the control treated only with cytokine mix: 2 h pre-treatment, cytokine mix 24 h. As to the method:
(§2) Two assays were performed to investigate the effect of selected compounds of this invention in an inflammation model with human skin keratinocytes.
(§3) In this model, the association of 3 cytokines that induce a strong synergistic effect on keratinocytes in culture (Boniface K, Diveu C, Morel F, Pedretti N, Froger J, Ravon E, Garcia M, Venereau E, Preisser L, Guignouard E, Guillet G, Dagregorio G, Pene J, Moles J P, Yssel H, Chevalier S, Bernard F X, Gascan H, Lecron J C. Oncostatin M secreted by skin infiltrating T lymphocytes is a potent keratinocyte activator involved in skin inflammation. J Immunol. 2007 Apr. 1;178(7):4615-22), is used to measure the expression of selected markers for keratinocyte inflammation: the antibacterial/chemoattractive markers S100A7/psoriasin and defensin HBD2/4
(§4) Normal human epidermal keratinocytes (NHEK pool K015, 3e passage) were cultured under the following conditions: • Culture: 37° C., 5% CO2 • Culture medium: SFM (Invitrogen 17005075) • Epidermal Growth Factor 0.25 ng/ml and pituitary extract 25 μg/ml • (EGF, EP, Invitrogen 17005075) • Gentamycine 25 μg/ml (Sigma G1397) • Assay medium: SFM without EGF and pituitary extract (Invitrogen 17005075)
(§5) Keratinocytes were pre-cultivated in culture medium. At confluence, the culture medium was changed into assay medium (SFM without EGF and pituitary extract) containing or not (control) the test compounds and the cells were pre-treated for 2 h at 37° C. and 5% CO2. At the end of the pre-treatment, the cytokine mix consisting of oncostatin M (OSM), IL-17 and […], was added to the cultures for 24 h at 37° C. and 5% CO2 (a non-treated and non-stimulated control was run in parallel). At the end of the experiment, the cells were washed in PBS buffer (Invitrogen 14190094) and immediately frozen at −80° C. with 300 μl per well of Tri-reagent (Sigma T9424).
(§6) Primers couples allowing the amplification of a specific PCR product from each selected marker were used. Liver glyceraldehyde 3-phosphate dehydrogenase (G3PDH) was used as a reference marker in this experiment.
Defensin beta 4 (DEFB4), beta-defensin 2 (hBD2, DEFB2);
skin-antimicrobial peptide 1 (SAP1) HBD2 NM_004942
(§7) RNA Extraction and Reverse Transcription • Extraction of total RNA by Tri-Reagent according to the protocol recommended by the supplier. • Elimination of contaminant DNA by DNAse treatment using the “DNA-free” system (Ambion). • Reverse-transcription of mRNA in the presence of oligo(dT) and Superscript II reversetranscriptase (Invitrogen).
(§8) The PCR reactions (Polymerase Chain Reactions) were performed using the LightCycler® system (Roche Molecular Systems Inc.) according to the protocol recommended by the supplier. This system allows rapid and powerful PCR reactions.
(§9) The reaction mix (10 μl final) was added as follows: • 2.5 μl of cDNA diluted at 1/10e. • primers forward and reverse • reagent mix (Roche) containing tag DNA polymerase, SYBR Green I and MgCl2.
(§10) The incorporation of fluorescence in amplified DNA was measured continuously during the PCR cycles. […] The RE value was expressed in arbitrary units (AU) according to the formula:
(§11) (½ number of cycles)×10^6
For orientation: Real-time PCR tracks product formation cycle by cycle.

Test [3] deals with S100A7/psoriasin. Description: Cytokine mix-induced keratinocyte inflammation model, S100A7 mRNA expression (real-time PCR). The note with it: NHEK; for S100A7, % compared to the control treated only with cytokine mix: 2 h pre-treatment, cytokine mix 24 h. As for the experimental part: as §2, §3, §4, §5, §6, §7, §8, §9, §10, §11
The test system of test [4] is Interleukin (IL)6. Description: TNFα-stimulated HaCaT keratinocytes, release of IL6 into the medium (ELISA), Experiment 1. As to the method: as §1
HaCaT cells were cultivated under the conditions explained in detail in Wertz et al., Free Radical Biology & Medicine, Vol. 37, No. 5, pp. 654-670, 2004. Cells were pre-cultivated in medium containing with lycopene at a concentration of 1 μmol/L for 48 h to give the cells sufficient time to accumulate lycopene. Lycopene was solubilized in a stock solution with Tetrahydrofuran (THF) and diluted into the medium such that the end concentration was 0.1% THF. After the pre-incubation period, cells were stimulated with […] TNFα for 5 h, after which the medium was collected and frozen. Cells were harvested by trypsinisation and counted according to standard procedures. Il6 levels in the medium were standardized to the number of cells in the wells and expressed as pg/10^6 cells
A general note: An ELISA detects its analyte on a solid surface through an enzyme-linked reagent.

For the molecule `CC1=C(/C=C/C(C)=C/C=C/C(C)=C/C=C/C=C(C)/C=C/C=C(C)/C=C/C2=C(C)CCCC2(C)C)C(C)(C)CCC1` [Beta-carotene, beta-carotene], in test [1], the “Effect on base line IL6 secretion (in words)” value was “can reduce the base line level”. The “IL6 pg/10^6 cells ± SD” value came out at 315.86 pg/10^6 cells in test [1] (0.1 μmol/L), 225.15 pg/10^6 cells in test [1] (0.25 μmol/L), 241.8 pg/10^6 cells in test [1] (1.0 μmol/L) and 291.85 pg/10^6 cells in test [1] (3.0 μmol/L).

Take `CC1=C(/C=C/C(C)=C/C=C/C(C)=C/C=C/C=C(C)/C=C/C=C(C)/C=C/C2=C(C)C[C@@H](O)CC2(C)C)C(C)(C)CCC1` [Beta-cryptoxanthin, beta-cryptoxanthin]: in test [1], the “Effect on base line IL6 secretion (in words)” value is given as “moderate effect”. In addition, the “IL6 pg/10^6 cells ± SD” value in test [1] (0.1 μmol/L) came out at 264.76 pg/10^6 cells; in test [1] (0.25 μmol/L) it was 268.46 pg/10^6 cells; in test [1] (0.5 μmol/L) it was 286.77 pg/10^6 cells.

Consider `OCCc1ccc(O)c(O)c1` [Hydroxytyrosol, hydroxytyrosol], for which the results for the “HBD2, % compared to the control treated only with cytokine mix” value (shortened to “HBD2, %”) in test [2] (0.2 μmol/L), in test [2] (1.0 μmol/L) and in test [2] (5.0 μmol/L) were 50%, 51% and 40%, respectively. In addition, the entries for the “S100A7, % compared to the control treated only with cytokine mix” value in test [3] (0.2 μmol/L), in test [3] (1.0 μmol/L) and in test [3] (5.0 μmol/L) were 60%, 57% and 49%, respectively.

`CC(C)=CCC/C(C)=C/C=C/C(C)=C/C=C/C(C)=C/C=C/C=C(C)/C=C/C=C(C)/C=C/C=C(\C)CCC=C(C)C` [Lycopene, lycopene]: the “Effect on reaction of keratinocytes to pro-inflammatory stimulus (in words)” value in test [4] is “significantly reduce”.

As to `Oc1ccc(C=Cc2cc(O)cc(O)c2)cc1` [Resveratrol, resveratrol], the “HBD2, %” value in test [2] (0.2 μmol/L) was 61%; in test [2] (1.0 μmol/L) it was 51%; in test [2] (5.0 μmol/L), 47%. In addition, the “Effect on cytokine mix induction of HBD2/4 mRNA (in words)” value in test [2] was “strongly inhibited”. Moreover, the results for the “S100A7, % compared to the control treated only with cytokine mix” value in test [3] (0.2 μmol/L), in test [3] (1.0 μmol/L) and in test [3] (5.0 μmol/L) were 68%, 66% and 53%, respectively. In test [3], the “Effect on cytokine mix induction of S100A7 mRNA (in words)” value is on record as “strongly inhibited”.

Consider (−)-Epigallocatechin gallate [EGCG], for which the “HBD2, %” value is recorded as 59% in test [2] (0.2 μmol/L), 43% in test [2] (1.0 μmol/L) and 33% in test [2] (5.0 μmol/L). In addition, in test [2], the “Effect on cytokine mix induction of HBD2/4 mRNA (in words)” value is “strongly inhibited”. Besides, the “S100A7, % compared to the control treated only with cytokine mix” value in test [3] (0.2 μmol/L) was 66%; in test [3] (1.0 μmol/L), 20%; in test [3] (5.0 μmol/L) it was 27%. Further, in test [3], the “Effect on cytokine mix induction of S100A7 mRNA (in words)” value is reported as “strongly inhibited”.
